Structures can show the parent of a compound that is named as a salt.
Test system: XBP1s-luc 293 LUC
Experiment: cellular PD assay, XBP1s-LUC reporter (Example 903)
Type: cell-based
Conditions: Table 1; read-out: XBP1s-luc 293 LUC (IC50)
Summary of the method: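 A luciferase fusion, in frame and expressed only when the XBP1 transcript is spliced, served as the readout of cellular IRE1α activity in an XBP1-Luc reporter line.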

**Q.** Which IC50 does the source give for `Cc1ccc2c(NC(=O)[C@H]3C[C@@H]3C)cccc2c1Oc1ncccc1-c1ccnc(N[C@H]2CCCNC2)n1` [Example 234, (1S,2S)-2-Methyl-N-(6-methyl-5-((3-(2-(((S)-piperidin-3-yl)amino)pyrimidin-4-yl)pyridin-2-yl)oxy)naphthalen-1-yl)cyclopropane-1-carboxamide] here?
**A.** 111 nM

**Q.** How did the IC50 turn out when `Cc1ccc2c(NC(=O)C3(C)CC3)cccc2c1Oc1ncccc1-c1ccnc(N[C@@H]2CNC[C@H](C)C2)n1` [Example 368, 1-Methyl-N-(6-methyl-5-((3-(2-(((3S,5R)-5-methylpiperidin-3-yl)amino)pyrimidin-4-yl)pyridin-2-yl)oxy)naphthalen-1-yl)cyclopropanecarboxamide] was run?
**A.** 214 nM

**Q.** How did the IC50 turn out when `Cc1ccc2c(NC(=O)[C@H]3CC34CC4)c(F)ccc2c1Oc1ncccc1-c1ccnc(N[C@H]2CCCNC2)n1` (single isomer, unassigned) [Example 379] was run?
**A.** 279 nM

**Q.** `Cc1ccc2c(NC(=O)C3CC3C(C)C)cccc2c1Oc1ncccc1-c1ccnc(N[C@H]2CCCNC2)n1` (single isomer, unassigned) [Example 230] was tested. Which IC50 did it give?
**A.** 80 nM

**Q.** `Cc1ccc2c(NC(=O)C3CC3)cccc2c1Oc1ncccc1-c1ccnc(N[C@H]2CCCNC2)n1` [Example 337, (S)—N-(6-Methyl-5-((3-(2-(piperidin-3-ylamino)pyrimidin-4-yl)pyridin-2-yl)oxy)naphthalen-1-yl)cyclopropanecarboxamide hydrochloride] was tested. Which IC50 did it give?
**A.** 84.2 nM

**Q.** `Cc1ccc2c(NS(=O)(=O)Cc3ccc(Cl)cc3)cccc2c1Oc1ncccc1-c1ccnc(N[C@H]2CCCNC2)n1` [Example 143, (S)-1-(4-Chlorophenyl)-N-(6-methyl-5-((3-(2-(piperidin-3-ylamino)pyrimidin-4-yl)pyridin-2-yl)oxy)naphthalen-1-yl)methanesulfonamide] was tested. Which IC50 did it give?
**A.** 17 nM

**Q.** For `Cc1nc(CNc2c(F)ccc3c(Oc4ncccc4-c4ccnc(N[C@H]5CCCNC5)n4)c(C)ccc23)cs1` [Example 371, (S)-4-(2-((6-Fluoro-2-methyl-5-(((2-methylthiazol-4-yl)methyl)amino)naphthalen-1-yl)oxy)pyridin-3-yl)-N-(piperidin-3-yl)pyrimidin-2-amine], which IC50 is on record?
**A.** 381 nM

**Q.** `Cc1ccc2c(NC(=O)Cc3ccccc3)cccc2c1Oc1ncccc1-c1ccnc(N[C@H]2CCCNC2)n1` [Example 184, N-[6-Methyl-5-[[3-[2-[[(3S)-3-piperidyl]amino]pyrimidin-4-yl]-2-pyridyl]oxy]-1-naphthyl]-2-phenyl-acetamide] was tested. Which IC50 did it give?
**A.** 100 nM

**Q.** For `Cc1ccc2c(NS(=O)(=O)C(C)C)cccc2c1Oc1ncccc1-c1ccnc(N[C@H]2CCCNC2)n1` [Example 106, (S)—N-(6-Methyl-5-((3-(2-(piperidin-3-ylamino)pyrimidin-4-yl)pyridin-2-yl)oxy)naphthalen-1-yl) methylethylsulfonamide hydrochloride], which IC50 is on record?
**A.** 349 nM

**Q.** For `COCCS(=O)(=O)Nc1c(F)ccc2c(Oc3ncccc3-c3ccnc(N[C@H]4CCCNC4)n3)c(C)ccc12` [Example 185, (S)—N-(2-Fluoro-6-methyl-5-((3-(2-(piperidin-3-ylamino)pyrimidin-4-yl)pyridin-2-yl)oxy)naphthalen-1-yl)-2-methoxyethanesulfonamide], which IC50 is on record?
**A.** 73.5 nM

**Q.** How did the IC50 turn out when `Cc1ccc2c(NC(=O)CC(C)(C)C)c(F)ccc2c1Oc1ncccc1-c1ccnc(N[C@@H]2CNC[C@H](C)C2)n1` [Example 374, N-(2-Fluoro-6-methyl-5-((3-(2-(((3S,5R)-5-methylpiperidin-3-yl)amino)pyrimidin-4-yl)pyridin-2-yl)oxy)naphthalen-1-yl)-3,3-dimethylbutanamide] was run?
**A.** 39.4 nM

**Q.** How did the IC50 turn out when `Cc1cc(NS(=O)(=O)C2CCC2)c2ccccc2c1Oc1ncccc1-c1ccnc(N[C@H]2CC[C@H](N)CC2)n1` [Example 111, N-(4-((3-(2-(((trans)-4-Aminocyclohexyl)amino)pyrimidin-4-yl)pyridin-2-yl)oxy)-3-methylnaphthalen-1-yl)cyclobutanesulfonamide hydrochloride] was run?
**A.** 447 nM

**Q.** `Cc1ccc2c(NCC[C@H](C)O)cccc2c1Oc1ncccc1-c1ccnc(N[C@H]2CCCNC2)n1` (single isomer, unassigned) [Example 202] was tested. Which IC50 did it give?
**A.** 123 nM

**Q.** `Cc1ccc2c(NC(=O)CC3(C)CCCCC3)cccc2c1Oc1ncccc1-c1ccnc(N[C@H]2CCCNC2)n1` [Example 264, (S)—N-(6-Methyl-5-((3-(2-(piperidin-3-ylamino)pyrimidin-4-yl)pyridin-2-yl)oxy)naphthalen-1-yl)-2-(1-methylcyclohexyl)acetamide hydrochloride] was tested. Which IC50 did it give?
**A.** 350 nM

Same assay, conditions: Table 2; read-out: XBP1s-luc 293 LUC (IC50)

**Q.** With `Cc1ccc2c(NS(=O)(=O)CC(F)(F)F)c(F)ccc2c1Oc1ncccc1-c1ccnc(N[C@@H]2CNC[C@@H](F)C2)n1` (single isomer, unassigned) [Example 444, hydrochloride] as the compound, how does the IC50 read?
**A.** 19 nM

**Q.** How did the IC50 turn out when `CO[C@H](C)CS(=O)(=O)Nc1c(F)ccc2c(Oc3ncccc3-c3ccnc(N[C@H]4CCCNC4)n3)c(C)ccc12` (single isomer, unassigned) [Example 394, hydrochloride] was run?
**A.** 28 nM

**Q.** `Cc1ccc2c(NS(=O)(=O)c3ccc4c(c3)OCO4)c(F)ccc2c1Oc1ncccc1-c1ccnc(N[C@H]2CCCNC2)n1` [Example 403, N-[2-Fluoro-6-methyl-5-[[3-[2-[[(3S)-3-piperidyl]amino]pyrimidin-4-yl]-2-pyridyl]oxy]-1-naphthyl]-1,3-benzodioxole-5-sulfonamide] was tested. Which IC50 did it give?
**A.** 44 nM

**Q.** Which IC50 does the source give for `Cc1ccc2c(NS(=O)(=O)CC(C)C)c(F)ccc2c1Oc1ncccc1-c1ccnc(N[C@@H]2CNC[C@@H](C)C2)n1` [Example 401, N-[2-Fluoro-6-methyl-5-[[3-[2-[[(3S,5S)-5-methyl-3-piperidyl]amino]pyrimidin-4-yl]-2-pyridyl]oxy]-1-naphthyl]-2-methyl-propane-1-sulfonamide hydrochloride] here?
**A.** 67 nM

**Q.** How did the IC50 turn out when `Cc1ccc2c(NC[C@H](C)C#N)cccc2c1Oc1ncccc1-c1ccnc(N[C@H]2CCCNC2)n1` (single isomer, unassigned) [Example 415, hydrochloride] was run?
**A.** 269 nM

**Q.** How did the IC50 turn out when `Cc1ccc2c(NS(=O)(=O)N(C)CC(F)(F)F)c(F)ccc2c1Oc1ncccc1-c1ccnc(N[C@@H]2CNC[C@@H](F)C2)n1` (single isomer, unassigned) [Example 500, hydrochloride] was run?
**A.** 8.7 nM

**Q.** `COc1c(Cl)cccc1CS(=O)(=O)Nc1c(F)ccc2c(Oc3ncccc3-c3ccnc(N[C@H]4CCCNC4)n3)c(C)ccc12` [Example 437, (S)-1-(3-Chloro-2-methoxyphenyl)-N-(2-fluoro-6-methyl-5-((3-(2-(piperidin-3-ylamino)pyrimidin-4-yl)pyridin-2-yl)oxy)naphthalen-1-yl)methanesulfonamide hydrochloride] was tested. Which IC50 did it give?
**A.** 18 nM

**Q.** With `Cc1ccc2c(NC(=O)CC(O)C(F)(F)F)cccc2c1Oc1ncccc1-c1ccnc(N[C@H]2CCCNC2)n1` (single isomer, unassigned) [Example 435] as the compound, how does the IC50 read?
**A.** 338 nM

**Q.** With `Cc1ccc2c(NS(=O)(=O)Cc3ccc(C(F)F)cc3)c(F)ccc2c1Oc1ncccc1-c1ccnc(N[C@H]2CCCNC2)n1` [Example 438, (S)-1-(4-(Difluoromethyl)phenyl)-N-(2-fluoro-6-methyl-5-((3-(2-(piperidin-3-ylamino)pyrimidin-4-yl)pyridin-2-yl)oxy)naphthalen-1-yl)methanesulfonamide hydrochloride] as the compound, how does the IC50 read?
**A.** 5 nM

**Q.** `Cc1ccc2c(NS(=O)(=O)Cc3ccccc3)c(F)ccc2c1Oc1ncccc1-c1ccnc(N[C@@H]2CNC[C@@H](F)C2)n1` (single isomer, unassigned) [Example 418, hydrochloride] was tested. Which IC50 did it give?
**A.** 2 nM
